Source: patent US10471046B2, “Method for treating, preventing, or reducing the risk of skin infection” (Melinta Subsidiary Corp., priority 2014, dated 2019)
Values after ≈ are worked out from the molar mass of the structure shown.

Test system: S. aureus
Assay: Minimum inhibitory concentrations (MICs) for S. aureus of exemplary compounds (Table 2)
Format: cell-based
Conditions: Staphylococcus aureus, minimum inhibitory concentrations for S. aureus; read-out: MICs
Method in brief: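 MICs (μg/mL) against S. aureus come from microtiter-tray dilution susceptibility testing per NCCLS M7-A5, comparing growth with and without compound.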

Structure (SMILES)	MIC
CO/N=C(\CNCc1cnoc1)c1ccc(-c2ccc(N3C[C@H](CNC(C)=O)OC3=O)cc2F)cc1 [Compound 4254, N-[3-(2-Fluoro-4′-{2-[(isoxazol-4-ylmethyl)-amino]-1-methoxyimino-ethyl}-biphenyl-4-yl)-2-oxo-oxazolidin-5-(S)-ylmethyl]-acetamide]	2 µg/mL (≈ 4.04 µM)
CC(=O)NC[C@H]1CN(c2ccc(-c3ccc(CN4CCC(CCO)CC4)cc3)c(F)c2)C(=O)O1 [Compound 1030, N-(3-{2-Fluoro-4′-[4-(2-hydroxy-ethyl)-piperidin-1-ylmethyl]-biphenyl-4-yl}-2-oxo-oxazolidin-5-(S)-ylmethyl)-acetamide]	2 µg/mL (≈ 4.26 µM)
COc1nc(C)c(C=CC(=O)NCc2ccc(-c3ccc(N4C[C@H](CNC(C)=O)OC4=O)cc3F)cc2)c(OC)n1 [Compound 4003, N-{4′-[5-(S)-(Acetylamino-methyl)-2-oxo-oxazolidin-3-yl]-2′-fluoro-biphenyl-4-ylmethyl}-3-(2,4-dimethoxy-6-methyl-pyrimidin-5-yl)-acrylamide]	128 µg/mL (≈ 227 µM)
CC(=O)NC[C@H]1CN(c2ccc(-c3ccc(S(=O)(=O)Cc4cc[n+]([O-])cc4)cc3)c(F)c2)C(=O)O1 [Compound 3004, N-{3-[2-Fluoro-4′-(1-oxy-pyridin-4-ylmethanesulfonyl)-biphenyl-4-yl]-2-oxo-oxazolidin-5-(S)-ylmethyl}-acetamide]	4 µg/mL (≈ 8.01 µM)
CC(=O)NC[C@H]1CN(c2ccc(-c3ccc(C(=O)NCc4ncon4)cc3)c(F)c2)C(=O)O1 [Compound 4224, 4′-[5-(S)-(Acetylamino-methyl)-2-oxo-oxazolidin-3-yl]-2′-fluoro-biphenyl-4-carboxylic acid ([1,2,4]oxadiazol-3-ylmethyl)-amide]	0.5 µg/mL (≈ 1.1 µM)
CC(=O)NC[C@H]1CN(c2ccc(-c3ccc(CN4CCOC4=O)cc3)c(F)c2)C(=O)O1 [Compound 1101, N-{3-[2-Fluoro-4′-(2-oxo-oxazolidin-3-ylmethyl)-biphenyl-4-yl]-2-oxo-oxazolidin-5-(S)-ylmethyl}-acetamide]	0.25 µg/mL (≈ 0.585 µM)
CC(=O)NC[C@H]1CN(c2ccc(-c3ccc(Cn4nnc(C)n4)cc3)c(F)c2)C(=O)O1 [Compound 1059, N-{3-[2-Fluoro-4′-(5-methyl-tetrazol-2-ylmethyl)-biphenyl-4-yl]-2-oxo-oxazolidin-5-(S)-ylmethyl}-acetamide]	0.5 µg/mL (≈ 1.18 µM)
CC(=O)NC[C@H]1CN(c2ccc(-c3ccc([C@H](O)CNCc4ccccc4)cc3)c(F)c2)C(=O)O1 [Compound 4246, N-{3-[4′-(2-Benzylamino-1-(S)-hydroxy-ethyl)-2-fluoro-biphenyl-4-yl]-2-oxo-oxazolidin-5-(S)-ylmethyl}-acetamide]	4 µg/mL (≈ 8.38 µM)
CC(=O)NC[C@H]1CN(c2ccc(-c3ccc(Cn4ccnc4N)cc3)c(F)c2)C(=O)O1 [Compound 1113, N-{3-[4′-(2-Amino-imidazol-1-ylmethyl)-2-fluoro-biphenyl-4-yl]-2-oxo-oxazolidin-5-(S)-ylmethyl}-acetamide]	2 µg/mL (≈ 4.72 µM)
CC(=O)NC[C@H]1CN(c2ccc(-c3ccc(NC(=O)NCc4ccncc4)cc3)c(F)c2)C(=O)O1 [Compound 6004, N-{3-[2-Fluoro-4′-(3-pyridin-4-ylmethyl-ureido)-biphenyl-4-yl]-2-oxo-oxazolidin-5-(S)-ylmethyl}-acetamide]	1 µg/mL (≈ 2.09 µM)
CC(=O)NC[C@H]1CN(c2ccc(-c3ccc(CNCc4cnn[nH]4)nc3)c(F)c2)C(=O)O1 [Compound 4277, N-{3-[3-Fluoro-4-(6-{[(3H-[1,2,3]triazol-4-ylmethyl)-amino]-methyl}-pyridin-3-yl)-phenyl]-2-oxo-oxazolidin-5-(S)-ylmethyl}-acetamide]	4 µg/mL (≈ 9.1 µM)
CC(=O)NC[C@H]1CN(c2ccc(-c3ccc(Cn4cnc5c(N(C)C)ncnc54)cc3)c(F)c2)C(=O)O1 [Compound 1105, N-{3-[4′-(6-Dimethylamino-purin-9-ylmethyl)-2-fluoro-biphenyl-4-yl]-2-oxo-oxazolidin-5-(S)-ylmethyl}-acetamide]	1 µg/mL (≈ 1.99 µM)
CC(=O)NC[C@H]1CN(c2ccc(-c3ccc(Cn4cnnn4)cc3)c(F)c2)C(=O)O1 [Compound 1047, N-[3-(2-Fluoro-4′-tetrazol-1-ylmethyl-biphenyl-4-yl)-2-oxo-oxazolidin-5-(S)-ylmethyl]-acetamide]	0.25 µg/mL (≈ 0.609 µM)
CC(=O)NC[C@H]1CN(c2ccc(-c3ccc(CNCC4CCOC4)cc3)c(F)c2)C(=O)O1 (stereo partly drawn) [Compound 4219, N-[3-(2-Fluoro-4′-{[(tetrahydro-furan-3-ylmethyl)-amino]-methyl}-biphenyl-4-yl)-2-oxo-oxazolidin-5-(S)-ylmethyl]-acetamide]	8 µg/mL (≈ 18.1 µM)
COC(=O)c1cc(CNCc2ccc(-c3ccc(N4C[C@H](CNC(C)=O)OC4=O)cc3F)cc2)oc1C [Compound 4120, 5-[({4′-[5-(S)-(Acetylamino-methyl)-2-oxo-oxazolidin-3-yl]-2′-fluoro-biphenyl-4-ylmethyl}-amino)-methyl]-2-methyl-furan-3-carboxylic acid methyl ester]	1 µg/mL (≈ 1.96 µM)
CC(=O)NC[C@H]1CN(c2ccc(-c3ccc(CNCc4cocn4)nc3)c(F)c2)C(=O)O1 [Compound 4235, N-{3-[3-Fluoro-4-(6-{[(oxazol-4-ylmethyl)-amino]-methyl}-pyridin-3-yl)-phenyl]-2-oxo-oxazolidin-5-(S)-ylmethyl}-acetamide]	2 µg/mL (≈ 4.55 µM)
CC(=O)NC[C@H]1CN(c2ccc(-c3ccc(CNCc4ccc(CO)o4)cc3)c(F)c2)C(=O)O1 [Compound 4075, N-[3-(2-Fluoro-4′-{[(5-hydroxymethyl-furan-2-ylmethyl)-amino]-methyl}-biphenyl-4-yl)-2-oxo-oxazolidin-5-(S)-ylmethyl]-acetamide]	2 µg/mL (≈ 4.28 µM)
CC(=O)NC[C@H]1CN(c2ccc(-c3ccc(CNCCCc4cn[nH]c4C)cc3)c(F)c2)C(=O)O1 [Compound 4148, N-[3-(2-Fluoro-4′-{[3-(5-methyl-1H-pyrazol-4-yl)-propylamino]-methyl}-biphenyl-4-yl)-2-oxo-oxazolidin-5-(S)-ylmethyl]-acetamide]	2 µg/mL (≈ 4.17 µM)
CC(=O)NC[C@H]1CN(c2ccc(-c3ccc([S+]([O-])Cc4ccncc4)cc3)c(F)c2)C(=O)O1 (stereo partly drawn) [Compound 3002, N-{3-[2-Fluoro-4′-(pyridin-4-ylmethanesulfinyl)-biphenyl-4-yl]-2-oxo-oxazolidin-5-(S)-ylmethyl}-acetamide]	1 µg/mL (≈ 2.14 µM)
CC(=O)NC[C@H]1CN(c2ccc(-c3ccc(CNCc4cnoc4)nc3)c(F)c2)C(=O)O1 [Compound 4252, N-{3-[3-Fluoro-4-(6-{[(isoxazol-4-ylmethyl)-amino]-methyl}-pyridin-3-yl)-phenyl]-2-oxo-oxazolidin-5-(S)-ylmethyl}-acetamide]	2 µg/mL (≈ 4.55 µM)
CC(=O)NC[C@H]1CN(c2ccc(-c3cccc(CNCc4csnn4)c3)c(F)c2)C(=O)O1 [Compound 4166, N-[3-(2-Fluoro-3′-{[([1,2,3]thiadiazol-4-ylmethyl)-amino]-methyl}-biphenyl-4-yl)-2-oxo-oxazolidin-5-(S)-ylmethyl]-acetamide]	8 µg/mL (≈ 17.6 µM)
CC(=O)NC[C@H]1CN(c2ccc(-c3ccc(CSc4cnn[nH]4)nc3)c(F)c2)C(=O)O1 [Compound 2040, N-(3-{3-Fluoro-4-[6-(3H-[1,2,3]triazol-4-ylsulfanylmethyl)-pyridin-3-yl]-phenyl}-2-oxo-oxazolidin-5-(S)-ylmethyl)-acetamide]	0.25 µg/mL (≈ 0.565 µM)
